According to patent publication US20040121946A9, “Inducing cellular immune responses to her2/neu using peptide and nucleic acid compositions” (priority 2002, published 2004):

Key:
[1] = test system: HLA-DR molecules (DR1, DR4w4, DR7, DRB5*0101, DRB1*1501, DRB1*1101, DRB1*0802, DRB1*1302); assay: DR supertype cross-reactive binding; parameters: species or system human; conditions: for No. of DR Alleles Crossbound: Table XXXI; for DR147 Binding / DR147 Cross-binding: number of DR1, DR4w4, DR7 bound; for DR147 Binding: Table XXIX; for DR147 Cross-binding: Table XXVIII; for Broad Binding (5/8): number of the 8 DR alleles bound
DRB1*1101 (DR5w11) = DRB1*1101 (DR5w11) (Homo sapiens, UniProt P01903+P01911, A100R/A169T/A87E/I96F/K41T/L162R/M171V/P40S/Q125H/Q178H/Q39Y/Q99D/R42S/S66Y/T262R/V115G/W38E); assay: HLA class II peptide binding assay, purified HLA; conditions: for DR5w11 binding data: unit not given
DRB1*1501 (DR2w2β1) = DRB1*1501 (DR2w2β1) (Homo sapiens, UniProt P01903+P01911); assay: HLA class II peptide binding assay, purified HLA; conditions: unit not given; for DR2wB1 binding data: Table XIX, DR supermotif peptides; for DR2w2B1 binding data: Table XXa, DR 3a motif peptides
DRB5*0101 (DR2w2β2) = DRB5*0101 (DR2w2β2) (Homo sapiens, UniProt P01903+Q30154); assay: HLA class II peptide binding assay, purified HLA; conditions: unit not given
DRB1*0401 (DR4w4) = DRB1*0401 (DR4w4) (Homo sapiens, UniProt P01903+P01911, A100K/A169T/F76Y/I96L/K127E/L162R/M171V/N62H/P40V/Q125Y/R42H/S133A/S149N/S66Y/V115G/V209L/W38E); assay: HLA class II peptide binding assay, purified HLA; conditions: unit not given
DRB1*0701 (DR7) = DRB1*0701 (DR7) (Homo sapiens, UniProt P01903+P01911, A100R/A102G/A103Q/D57E/D86V/E43K/F76Y/K127E/L162R/M171V/P40G/Q125H/Q99D/R33Q/R42Y/R54Q/S133A/S66F/T210M/V115G/Y107V/Y59L/Y89S); assay: HLA class II peptide binding assay, purified HLA; conditions: unit not given
DRB1*0101 (DR1) = DRB1*0101 (DR1) (Homo sapiens, UniProt P01903+P01911, A100R/D57E/F55L/F60I/F76Y/I96L/L162R/M171V/P40L/Q125E/R42F/V115G/Y59C); assay: HLA class II peptide binding assay, purified HLA; conditions: unit not given
DRB1*1302 (DR6w19) = DRB1*1302 (DR6w19) (Homo sapiens, UniProt P01903+P01911, A100E/A169T/K41T/L162R/M171V/P40S/Q125H/Q178H/Q39Y/Q99D/R42S/S66N/T262R/V115G/W38E/Y61H); assay: HLA class II peptide binding assay, purified HLA; conditions: for DR6w19 binding data: unit not given
DRB1*0301 (DR3) = DRB1*0301 (DR3) (Homo sapiens, UniProt P01903+P01911, A100K/A102G/A103R/A169T/F55Y/I96L/K41T/L162R/M171V/P40S/Q125H/Q178H/Q39Y/R42S/S66N/T106N/T262R/W38E/Y61H); assay: HLA class II peptide binding assay, purified HLA; conditions: unit not given
DRB1*0802 (DR8w2) = DRB1*0802 (DR8w2) (Homo sapiens, UniProt P01903+P01911, A100R/A103L/A169T/F76Y/H45Y/I96F/K41T/L162R/M171V/P40S/Q125H/Q178H/Q39Y/Q99D/R218S/R42G/S66Y/V115G/W38E); assay: HLA class II peptide binding assay, purified HLA; conditions: for DR8w2 binding data: unit not given
[2] = Table XIX, DR supermotif peptides
[3] = Table XXa, DR 3a motif peptides

Compound | DR5w11 binding data (DRB1*1101 (DR5w11); [2]) | DR2wB1 binding data (DRB1*1501 (DR2w2β1)) | DR2w2B2 binding data (DRB5*0101 (DR2w2β2); [2]) | DR4w4 binding data (DRB1*0401 (DR4w4); [2]) | DR7 binding data (DRB1*0701 (DR7); [2]) | DR1 binding data (DRB1*0101 (DR1); [2]) | DR6w19 binding data (DRB1*1302 (DR6w19); [2]) | DR3 binding data (DRB1*0301 (DR3); [2]) | DR8w2 binding data (DRB1*0802 (DR8w2); [2]) | DR147 Binding [1] | DR147 Cross-binding [1] | Broad Binding (5/8) [1] | further results
CC(C)C[C@H](NC(=O)[C@H](CC(=O)O)NC(=O)[C@H](CCCNC(=N)N)NC(=O)[C@H](Cc1c[nH]cn1)NC(=O)[C@@H](NC(=O)[C@H](CC(C)C)NC(=O)[C@H](CCCNC(=N)N)NC(=O)[C@@H](N)C(C)C)C(C)C)C(=O)N[C@@H](C)C(=O)N[C@@H](C)C(=O)N[C@@H](CCCNC(=N)N)C(=O)N[C@@H](CC(N)=O)C(=O)N[C@H](C(=O)N[C@@H](CC(C)C)C(=O)N[C@H](C(=O)O)C(C)C)C(C)C | 0.2700 | 0.0064 | 0.0033 | 0.0150 | 0.0230 | 0.0340 | 0.0430 | 0.3400 | 0.1000 |  |  |  | No. of DR Alleles Crossbound [1]: 4; IC50 (DRB1*1101 (DR5w11); Table XXXI): 74 nM; DR5w11 binding data (DRB1*1101 (DR5w11); [3]): 0.2700; DR2w2B1 binding data (DRB1*1501 (DR2w2β1)): 0.0064; DR2w2B2 binding data (DRB5*0101 (DR2w2β2); [3]): 0.0033; DR4w4 binding data (DRB1*0401 (DR4w4); [3]): 0.0150; DR7 binding data (DRB1*0701 (DR7); [3]): 0.0230; DR1 binding data (DRB1*0101 (DR1); [3]): 0.0340; IC50 (DRB1*1302 (DR6w19); Table XXXI): 81 nM; DR6w19 binding data (DRB1*1302 (DR6w19); [3]): 0.0430; DR3 binding data (DRB1*0301 (DR3); [3]): 0.3400; IC50 (DRB1*0802 (DR8w2); Table XXXI): 490 nM; DR8w2 binding data (DRB1*0802 (DR8w2); [3]): 0.1000
CC(C)C[C@H](NC(=O)[C@H](CO)NC(=O)[C@H](C)NC(=O)[C@H](CC(N)=O)NC(=O)[C@@H](NC(=O)[C@@H]1CCCN1C(=O)[C@H](CC(C)C)NC(=O)[C@H](Cc1ccc(O)cc1)NC(=O)[C@@H](NC(=O)[C@@H](N)CC(C)C)[C@@H](C)O)[C@@H](C)O)C(=O)N[C@@H](CO)C(=O)N[C@@H](Cc1ccccc1)C(=O)N[C@@H](CC(C)C)C(=O)N[C@@H](CCC(N)=O)C(=O)N[C@@H](CC(=O)O)C(=O)O | 0.0041 | 0.0100 | 0.0560 | 0.3300 | 0.3200 | 0.4900 | 0.0280 | 0.0150 | 0.0054 | 3 | 3 | 6 | 
CC[C@H](C)[C@H](NC(=O)[C@H](C)NC(=O)[C@@H](NC(=O)[C@@H]1CCCN1C(=O)[C@@H](NC(=O)[C@H](CCCCN)NC(=O)[C@@H](NC(=O)[C@H](CC(N)=O)NC(=O)[C@H](CCC(=O)O)NC(=O)CN)C(C)C)[C@@H](C)CC)C(C)C)C(=O)N[C@@H](CCCCN)C(=O)N[C@H](C(=O)N[C@@H](CC(C)C)C(=O)N[C@@H](CCCNC(=N)N)C(=O)N[C@@H](CCC(=O)O)C(=O)O)C(C)C | −0.0005 | 0.0047 | 0.0034 | −0.0032 | 0.0310 | 0.0630 | 0.0004 | 0.0098 | 0.0010 | 2 | 2 | 2 | 
CC[C@H](C)[C@H](NC(=O)[C@H](CCCNC(=N)N)NC(=O)CNC(=O)[C@H](CCCNC(=N)N)NC(=O)[C@@H](NC(=O)[C@@H](NC(=O)[C@H](CCC(N)=O)NC(=O)[C@H](CC(C)C)NC(=O)[C@H](CC(N)=O)NC(=O)[C@H](CCC(N)=O)NC(=O)[C@H](Cc1ccccc1)NC(=O)[C@@H](NC(=O)[C@H](CO)NC(=O)[C@@H](N)CC(C)C)C(C)C)C(C)C)[C@@H](C)CC)C(=O)N[C@@H](CC(C)C)C(=O)O | 0.0100 | 0.0280 | 0.0740 | 0.0670 | 0.2900 | 0.1800 | 0.0057 | 0.0010 | 0.0330 | 3 | 3 | 6 | 
CC[C@H](C)[C@H](NC(=O)[C@H](CCCNC(=N)N)NC(=O)[C@H](CCSC)NC(=O)[C@@H](N)CCC(N)=O)C(=O)N[C@@H](CC(C)C)C(=O)N[C@@H](CCCCN)C(=O)N[C@@H](CCC(=O)O)C(=O)N[C@H](C(=O)N[C@@H](CCC(=O)O)C(=O)N[C@@H](CC(C)C)C(=O)N[C@@H](CCCNC(=N)N)C(=O)N[C@@H](CCCCN)C(=O)N[C@H](C(=O)N[C@@H](CCCCN)C(=O)N[C@H](C(=O)O)C(C)C)C(C)C)[C@@H](C)O |  |  |  |  |  |  |  |  |  |  |  |  | No. of DR Alleles Crossbound [1]: 3; DR5w11 binding data (DRB1*1101 (DR5w11); [3]): 0.0041; DR2w2B1 binding data (DRB1*1501 (DR2w2β1)): 0.0150; DR2w2B2 binding data (DRB5*0101 (DR2w2β2); [3]): 0.5900; DR4w4 binding data (DRB1*0401 (DR4w4); [3]): −0.0055; DR7 binding data (DRB1*0701 (DR7); [3]): 0.0130; DR1 binding data (DRB1*0101 (DR1); [3]): 0.0419; DR6w19 binding data (DRB1*1302 (DR6w19); [3]): 0.0008; DR3 binding data (DRB1*0301 (DR3); [3]): 0.3200; DR8w2 binding data (DRB1*0802 (DR8w2); [3]): 0.0064
CC(C)C[C@H](NC(=O)[C@H](CO)NC(=O)[C@H](C)NC(=O)[C@H](CC(N)=O)NC(=O)[C@@H](NC(=O)[C@@H]1CCCN1C(=O)[C@H](CC(C)C)NC(=O)[C@H](Cc1ccc(O)cc1)NC(=O)[C@@H](NC(=O)[C@H](CC(C)C)NC(=O)[C@H](CCC(=O)O)NC(=O)[C@H](CC(C)C)NC(=O)[C@@H](N)CC(N)=O)[C@@H](C)O)[C@@H](C)O)C(=O)N[C@@H](CO)C(=O)N[C@@H](Cc1ccccc1)C(=O)O | 0.0050 | 0.0280 | 0.0090 | 0.3800 | 0.0680 | 0.4700 | 0.0017 | 0.0010 | 0.0220 | 3 | 3 | 4 | 
ASPLTSHSAVVGIL | −0.0005 | 0.0950 | 0.0037 | −0.0025 | 0.0350 | 0.0890 | 0.0480 | 0.0010 | −0.0004 |  |  |  | 
